Legend:
[1] = cited from earlier work
[2] = tested on: murine keratinocyte cell line PE; assay: viability by trypan blue exclusion; format: cell-based; conditions: 96 hours
[3] = tested on: P. berghei; conditions: cited from earlier work
[4] = tested on: MCF7; assay: cells; format: cell-based; conditions: Homo sapiens
[5] = tested on: SF-539; assay: cells; format: cell-based; conditions: Homo sapiens, read-out: Log10 TGI (converted)
[6] = tested on: SNB-75; assay: cells; format: cell-based; conditions: Homo sapiens
[7] = tested on: MDA-MB231/ATCC; assay: cells; format: cell-based; conditions: Homo sapiens, MDA-MB-231, read-out: Log10 TGI (converted)
[8] = tested on: MDA-N; assay: cells; format: cell-based; conditions: Homo sapiens
[9] = tested on: IGROVI; assay: cells; conditions: 60 cell
[10] = tested on: murine keratinocyte cell line PE; assay: growth inhibition of PE cells (MTT assay); format: cell-based; conditions: 100 nanomolar
Protocol: To determine the inhibitory effect of the compositions of the present invention on cell proliferation, screening assays were performed on a murine keratinocyte cell line PE. Cell line PE was chosen for its particular sensitivity to the induction of ornithine decarboxylase (ODC) activity by the extensively characterized tumor promoter TPA. […] PE cell culture medium consisted of Eagle's minimal essential medium without calcium chloride (Whittaker Bioproducts, Walkersville, Mass.) supplemented with 8% chelexed fetal calf serum and 1% antibiotic-antimycotic (Gibco BRL) and the addition of CaCl2 to 0.05 mM Ca^++.
Growth Inhibition. Growth curves, shown in FIGS. 1 and 2, for PE cells treated with calcitriol and the C-10 carbon-substituted dimers 21, 22, 26, 27, and 28 generated by assay for the reduction of the tetrazolium-based compound MTT, see Charmichael, et al., Cancer Res., 47:936-942 (1987). […] PE cells were seeded at a density of 5,000 cells/well in 50 μL of medium into 96-well microtiter plates. Twelve hours later, the medium was removed, and cells were treated with 100 μL of fresh medium into which the appropriate amount of calcitrol or analog dissolved in dimethyl sulfoxide (DMSO) had been added, with the concentration of DMSO held constant at 0.1%. […] At 24-hour intervals following the initial treatment of the cells with compounds, 0.1 mg (50 μL of a 2 mg/mL solution) of MTT was added to each well. After 4 hours, the MTT was removed and DMSO added to dissolve the blue formazan dye. Using a microtiter plate reader, the A505 was then determined and cell number calculated from blank-subtracted absorbance values.

[11] = tested on: SF-295; assay: cells; format: cell-based; conditions: Homo sapiens, read-out: Log10 TGI (converted)
[12] = tested on: HCT-15; assay: cells; format: cell-based; conditions: Homo sapiens, HCT-15, read-out: Log10 TGI
[13] = tested on: NCI-H460; assay: cells; format: cell-based; conditions: Homo sapiens
[14] = tested on: ACHN; assay: cells; conditions: Homo sapiens, read-out: Log10 LC50 (converted)
[15] = tested on: 60 cell line panel; assay: NCI 60 cell line screen, whole panel; format: cell-based
[16] = tested on: MDA-MB-435; assay: cells; format: cell-based; conditions: Homo sapiens, read-out: Log10 TGI (converted)
[17] = tested on: EKVX; assay: NCI 60 cell line screen (SRB), non-small cell lung cancer; format: cell-based; conditions: Homo sapiens
[18] = tested on: HS 578T; assay: cells; format: cell-based; conditions: Homo sapiens, read-out: Log10 TGI (converted)
[19] = tested on: MOLT-4; assay: cells; conditions: Homo sapiens, MOLT-4, read-out: concentration for primary growth inhibition
Protocol: The screening assay is performed on a 96-well microtitre plates.
Dose response curves, shown in the above mentioned Figures, are obtained by exposing various cancer cell lines to compounds having a known concentration ([log10 M]), as discussed in detail above, and then plotting the percentage growth of each cell line for each concentration. […] As discussed previously, the five drug dilutions routinely tested range from 10^-4 to 10^-9 molar.

[20] = tested on: NCI-H522; assay: cells; format: cell-based; conditions: Homo sapiens, read-out: Log10 TGI (converted)
[21] = tested on: HCT-116; assay: cells; format: cell-based; conditions: Homo sapiens, read-out: Log10 TGI (converted)
[22] = tested on: chloroquine-sensitive P. falciparum (NF54); assay: In vitro antimalarial activity ([3H]hypoxanthine incorporation); format: cell-based; conditions: in words
Protocol: Activity was determined by measuring the incorporation of [^3 H]hypoxanthine, by the methods of Desjardins and Milhouse, with the following modofications, see […].; Haynes, […]. Antimicrob. Agents Chemother., 16:710 (1979); Milhous, W. K.; Weatherly, […].; Antimicrob. Agents Chemother., 27: 525 (1985). […] Parasitemia was maintained at 0.05-3% and doubling time at approximately 15 hours by twice weekly change of medium and replenishment with fresh erythrocytes. […] Sigma-Aldrich #27,043-1). DMSO solutions were diluted 500-fold in medium, serially diluted in 0.2% DMSO in medium (to maintain constant solvent concentration), then 100 μL aliquots were pipetted into microtiter plate wells (Costar 3595). […] Plates included at least 8 wells of no drug controls (4 with and 4 without DMSO) and 4 wells of uninfected erythrocytes. […] Cells were harvested (Brandel MB-48R) onto GF-C glass filters (Brandel). The filters were washed five times with 3 mL water per sample spot, dried under a heat lamp, and counted (Beckman Model LS-6500) in scintillation cocktail (ICN Cytoscint). Decays per minute (dpm) values were downloaded and analyzed (Power MFacintosh 7200/90; Microsoft Excel 5.0), to yield the mean and standard deviation at each drug concentration.

[23] = tested on: BT-549; assay: cells; format: cell-based; conditions: Homo sapiens, read-out: Log10 TGI (converted)
[24] = tested on: A498; assay: cells; format: cell-based; conditions: Homo sapiens, read-out: Log10 GI50 (converted)
[25] = tested on: U251; assay: cells; format: cell-based; conditions: Homo sapiens, U-251, read-out: Log10 TGI (converted)
[26] = tested on: HOP-62; assay: cells; format: cell-based; conditions: Homo sapiens, read-out: Log10 TGI (converted)
[27] = tested on: SF-268; assay: NCI 60 cell line screen (SRB), CNS cancer; format: cell-based; conditions: Homo sapiens, read-out: Log10 TGI (converted)
[28] = tested on: K-562; assay: cells; format: cell-based; conditions: Homo sapiens, K562, read-out: Log10 TGI
[29] = tested on: NCI-H23; assay: NCI 60 cell line screen (SRB), non-small cell lung cancer; format: cell-based; conditions: Homo sapiens
[30] = tested on: HOP-92; assay: as above; format: cell-based; conditions: Homo sapiens, read-out: Log10 TGI (converted)
[31] = tested on: PC-3; assay: cells; format: cell-based; conditions: Homo sapiens, PC-3, read-out: Log10 TGI
[32] = tested on: KM12; assay: cells; format: cell-based; conditions: Homo sapiens, read-out: Log10 TGI (converted)
[33] = tested on: NCI-H226; assay: NCI 60 cell line screen (SRB), non-small cell lung cancer; format: cell-based; conditions: Homo sapiens
[34] = tested on: HT29; assay: cells; format: cell-based; conditions: Homo sapiens, HT-29, read-out: Log10 TGI (converted)
[35] = tested on: T-47D; assay: cells; format: cell-based; conditions: Homo sapiens, T47D, read-out: Log10 TGI
[36] = tested on: COLO 205; assay: NCI 60 cell line screen (SRB), colon cancer; format: cell-based; conditions: Homo sapiens, read-out: Log10 TGI (converted)
[37] = tested on: A549/ATCC; assay: NCI 60 cell line screen (SRB), non-small cell lung cancer; format: cell-based; conditions: Homo sapiens
[38] = tested on: Ehrlich ascites tumor (EAT) cells; conditions: cited from earlier work
[39] = rat liver microsomes; cited from earlier work
[40] = read-out: Log10 GI50 (converted)
[41] = read-out: Log10 TGI (converted)
[42] = read-out: Log10 LC50 (converted)

Structure (SMILES): C[C@@H]1CC[C@H]2[C@@H](C)C(O)O[C@@H]3O[C@@]4(C)CC[C@@H]1[C@]32OO4 (some centres unmarked) [dihydroartemisinin (II-1), dihydroartemisinin]
- half-life in plasma [1]: less than two

Structure (SMILES): C=C1/C(=C\C=C2/CCC[C@]3(C)[C@@H]([C@H](C)CCCC(C)(C)O)CC[C@@H]23)C[C@@H](O)C[C@@H]1O [calcitriol, 1α,25-dihydroxyvitamin D3]
- viability of treated cells vs control cells [2]: identical to control cells

Structure (SMILES): CC1=CO[C@@H]2O[C@@]3(C)CC[C@H]4[C@H](C)CC[C@@H]1[C@@]24OO3 [olefinic compound III]
- activity against P. berghei-infected mice ([3]; in words): inactive

Structure (SMILES): C[C@H]1[C@@H](CC(=O)c2cccc(C(=O)C[C@H]3O[C@@H]4O[C@@]5(C)CC[C@H]6[C@H](C)CC[C@@H]([C@H]3C)[C@@]46OO5)c2)O[C@@H]2O[C@@]3(C)CC[C@H]4[C@H](C)CC[C@@H]1[C@@]24OO3 [Dimer 22]
- IC (TGI) ([4]; MCF7, read-out: Log10 TGI): > 100 µM
- GI50 ([4]; MCF7, read-out: Log10 GI50 (converted)): 0.389 µM
- IC (TGI) [5]: > 100 µM
- GI50 [6, 40]: 4.37 µM
- IC (TGI) [6, 41]: > 100 µM
- IC (TGI) [7]: > 100 µM
- CC50 [8, 42]: > 100 µM
- IC (TGI) [8, 41]: > 100 µM
- GI50 [9, 40]: 0.589 µM
- CC50 ([9]; Homo sapiens, read-out: Log10 LC50 (converted)): > 100 µM
- antiproliferative activity compared with calcitriol [10]: at least as antiproliferative as calcitrol
- IC (TGI) [11]: > 100 µM
- IC (TGI) [12]: > 100 µM
- IC (TGI) ([13]; NCI-H460, read-out: Log10 TGI): > 100 µM
- CC50 ([13]; NCI-H460, read-out: Log10 LC50 (converted)): > 100 µM
- CC50 [14]: > 100 µM
- GI50 ([15]; 60 cell, mean over panel, read-out: Log10 GI50 MG MID (converted)): 75.9 µM
- Log10 TGI Delta ([15]; panel): 0.00
- Log10 TGI Range ([15]; panel): 0.00
- IC (TGI) [16]: > 100 µM
- CC50 [17, 42]: > 100 µM
- IC (TGI) [17, 41]: > 100 µM
- IC (TGI) [18]: > 100 µM
- GI50 [19]: > 100 µM
- IC (TGI) [20]: > 100 µM
- IC (TGI) [21]: > 100 µM
- IC50 compared with artemisinin [22]: lower than that of artemisinin
- IC (TGI) [23]: > 100 µM
- GI50 [24]: 46.8 µM
- IC (TGI) [25]: > 100 µM
- IC (TGI) [26]: > 100 µM
- IC (TGI) [27]: > 100 µM
- IC (TGI) [28]: > 100 µM
- LC50 [29, 42]: > 100 µM
- IC (TGI) [29, 41]: > 100 µM
- IC (TGI) [30]: > 100 µM
- IC (TGI) [31]: > 100 µM
- IC (TGI) [32]: > 100 µM
- CC50 [33, 42]: > 100 µM
- IC (TGI) [33, 41]: > 100 µM
- IC (TGI) [34]: > 100 µM
- IC (TGI) [35]: > 100 µM
- IC (TGI) [36]: > 100 µM
- CC50 [37, 42]: > 100 µM
- IC (TGI) [37, 41]: > 100 µM

Structure (SMILES): C[C@@H]1CC[C@H]2[C@@H](C)C(OC3O[C@@H]4O[C@@]5(C)CC[C@H]6[C@H](C)CC[C@@H]([C@H]3C)[C@@]46OO5)O[C@@H]3O[C@@]4(C)CC[C@@H]1[C@]32OO4 (some centres unmarked)
- SD90 (parasitemia 90 percent suppressed) ([3]; P. berghei-infected mice): 10 mg/kg
- times more cytotoxic than artemisinin [38]: approximately twenty-two
- times more cytotoxic than dihydroartemisinin (II-1) [38]: sixty
- times more potent than artemisinin at 50% growth inhibition ([38]; one cancer cell line): approximately twenty-two

Structure (SMILES): CCO[C@H]1O[C@@H]2O[C@@]3(C)CC[C@H]4[C@H](C)CC[C@@H]([C@H]1C)[C@@]24OO3 [arteether]
- conversion into dihydroartemisinin (II-1) [39]: rapidly converted

Reference: patent publication US6156790A, “C-10 carbon-substituted artemisinin-like trioxane compounds having antimalarial, antiproliferative and antitumor activities” (priority 1997, dated 2000)
